pIC50: −log10 of the molar value.
Experiments:
Bile salt export pump = Bile salt export pump (Homo sapiens, UniProt O95342); experiment: Inhibition of human BSEP overexpressed in Sf9 cell membrane vesicles assessed as uptake of [3H]-taurocholate in presence of ATP measured after 15 to 20 mins by membrane vesicle transport assay; type: ADME, cell-based
[1] = Drug concentration at steady state in human at 200 to 800 mg, po QD after 24 hrs; type: ADME, organism-based; conditions: in vivo, read-out: Css
[2] = AUC in human at 200 to 800 mg, po QD after 24 hrs; type: ADME, organism-based; conditions: in vivo
[3] = Ratio of drug concentration at steady state in human at 200 to 800 mg, po QD after 24 hrs to IC50 for human MRP4 overexpressed in Sf9 insect cells; type: ADME, organism-based; conditions: in vivo
[4] = target: T1, ATP-binding cassette sub-family C member 4 (Homo sapiens, UniProt O15439); experiment: Inhibition of human MRP4 overexpressed in Sf9 cell membrane vesicles assessed as uptake of [3H]-estradiol-17beta-D-glucuronide in presence of ATP and GSH measured after 20 mins by membrane vesicle transport assay; type: ADME, cell-based
T1 sequence (O15439 whole entry): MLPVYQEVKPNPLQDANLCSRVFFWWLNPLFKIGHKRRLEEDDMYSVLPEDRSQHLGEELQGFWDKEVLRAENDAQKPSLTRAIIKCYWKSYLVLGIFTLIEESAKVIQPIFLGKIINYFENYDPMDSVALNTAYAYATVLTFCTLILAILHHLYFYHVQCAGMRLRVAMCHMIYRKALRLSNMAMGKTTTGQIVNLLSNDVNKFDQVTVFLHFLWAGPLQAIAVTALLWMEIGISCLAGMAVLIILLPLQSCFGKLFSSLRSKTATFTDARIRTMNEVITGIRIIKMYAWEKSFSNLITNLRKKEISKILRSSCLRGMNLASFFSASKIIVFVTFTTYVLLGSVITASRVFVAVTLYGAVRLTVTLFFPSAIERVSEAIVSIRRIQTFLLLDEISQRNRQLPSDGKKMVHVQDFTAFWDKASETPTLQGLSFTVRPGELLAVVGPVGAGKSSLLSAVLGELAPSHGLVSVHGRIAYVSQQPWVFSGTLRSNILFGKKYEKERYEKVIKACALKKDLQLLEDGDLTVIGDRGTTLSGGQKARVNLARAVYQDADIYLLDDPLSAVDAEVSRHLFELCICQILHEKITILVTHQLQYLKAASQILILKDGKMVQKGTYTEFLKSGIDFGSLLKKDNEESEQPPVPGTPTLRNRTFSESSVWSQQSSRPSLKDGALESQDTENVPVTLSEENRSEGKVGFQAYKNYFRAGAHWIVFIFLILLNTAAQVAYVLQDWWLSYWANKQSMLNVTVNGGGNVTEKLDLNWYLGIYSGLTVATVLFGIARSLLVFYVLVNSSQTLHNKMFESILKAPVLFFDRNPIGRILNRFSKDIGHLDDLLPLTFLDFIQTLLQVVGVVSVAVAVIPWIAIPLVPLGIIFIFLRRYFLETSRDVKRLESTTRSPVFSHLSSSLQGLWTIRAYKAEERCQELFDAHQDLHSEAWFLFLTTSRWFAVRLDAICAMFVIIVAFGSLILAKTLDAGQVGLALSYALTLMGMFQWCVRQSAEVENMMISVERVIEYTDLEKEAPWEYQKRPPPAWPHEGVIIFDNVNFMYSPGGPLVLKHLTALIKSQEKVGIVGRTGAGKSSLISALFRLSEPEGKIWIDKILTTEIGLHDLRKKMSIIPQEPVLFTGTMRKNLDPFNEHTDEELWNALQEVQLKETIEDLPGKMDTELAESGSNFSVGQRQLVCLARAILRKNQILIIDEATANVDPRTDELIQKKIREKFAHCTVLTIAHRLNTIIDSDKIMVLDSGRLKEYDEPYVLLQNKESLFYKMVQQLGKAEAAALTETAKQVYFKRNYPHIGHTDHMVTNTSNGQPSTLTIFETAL

[5] = Ratio of drug concentration at steady state in human at 200 to 800 mg, po QD after 24 hrs to IC50 for human BSEP overexpressed in Sf9 insect cells; type: ADME, organism-based; conditions: in vivo
[6] = target: ATP-binding cassette sub-family C member 2 (Homo sapiens, UniProt Q92887); experiment: Inhibition of human MRP2 overexpressed in Sf9 cell membrane vesicles assessed as uptake of [3H]-estradiol-17beta-D-glucuronide in presence of ATP and GSH measured after 20 mins by membrane vesicle transport assay
[7] = target: ATP-binding cassette sub-family C member 3 (Homo sapiens, UniProt O15438); experiment: Inhibition of human MRP3 overexpressed in Sf9 insect cell membrane vesicles assessed as uptake of [3H]-estradiol-17beta-D-glucuronide in presence of ATP and GSH measured after 10 mins by membrane vesicle transport assay; type: ADME, cell-based
[8] = AUC in human at 50 ug, sc BID/TID co-treated with 50 to 500 ug, sc TID of sandostatin LAR measured after 8 hrs; type: ADME, organism-based; set-up: dose 50 ug, time < 8 hr, route subcutaneous; conditions: in vivo
[9] = Ratio of drug concentration at steady state in human at 50 ug, sc BID/TID co-treated with 50 to 500 ug, sc TID of sandostatin LAR measured after 8 hrs to IC50 for human BSEP overexpressed in Sf9 insect cells; type: ADME, organism-based; conditions: in vivo
[10] = Drug concentration at steady state in human at 50 ug, sc BID/TID co-treated with 50 to 500 ug, sc TID of sandostatin LAR measured after 8 hrs; type: ADME, organism-based; conditions: in vivo, read-out: Css
[11] = AUC in human at 600 mg, po QD after 24 hrs; type: ADME, organism-based; set-up: time < 24 hr, dose 600 mg, route oral; conditions: in vivo
[12] = Ratio of drug concentration at steady state in human at 600 mg, po QD after 24 hrs to IC50 for human BSEP overexpressed in Sf9 insect cells; type: ADME, organism-based; conditions: in vivo
[13] = Drug concentration at steady state in human at 600 mg, po QD after 24 hrs; type: ADME, organism-based; conditions: in vivo, read-out: Css
[14] = AUC in human at 20 to 40 mg/kg, po QD after 24 hrs; type: ADME, organism-based; conditions: in vivo
[15] = Ratio of drug concentration at steady state in human at 20 to 40 mg/kg, po QD after 24 hrs to IC50 for human MRP4 overexpressed in Sf9 insect cells; type: ADME, organism-based; conditions: in vivo
[16] = Drug concentration at steady state in human at 20 to 40 mg/kg, po QD after 24 hrs; type: ADME, organism-based; conditions: in vivo, read-out: Css
[17] = Ratio of drug concentration at steady state in human at 20 to 40 mg/kg, po QD after 24 hrs to IC50 for human BSEP overexpressed in Sf9 insect cells; type: ADME, organism-based; conditions: in vivo
[18] = Drug concentration at steady state in human at 200 mg, po TID after 8 hrs; type: ADME, organism-based; conditions: in vivo, read-out: Css
[19] = AUC in human at 200 mg, po TID after 8 hrs; type: ADME, organism-based; set-up: time < 8 hr, dose 200 mg, route oral; conditions: in vivo
[20] = Ratio of drug concentration at steady state in human at 200 mg, po TID after 8 hrs to IC50 for human BSEP overexpressed in Sf9 insect cells; type: ADME, organism-based; conditions: in vivo
[21] = Drug concentration at steady state in human at 75 to 600 mg, iv QD after 24 hrs; type: ADME, organism-based; conditions: in vivo, read-out: Css
[22] = AUC in human at 75 to 600 mg, iv QD after 24 hrs; type: ADME, organism-based; conditions: in vivo
[23] = AUC in human at 15 to 60 mg, po QD after 24 hrs; type: ADME, organism-based; conditions: in vivo
[24] = Ratio of drug concentration at steady state in human at 15 to 60 mg, po QD after 24 hrs to IC50 for human BSEP overexpressed in Sf9 insect cells; type: ADME, organism-based; conditions: in vivo
[25] = Drug concentration at steady state in human at 15 to 60 mg, po QD after 24 hrs; type: ADME, organism-based; conditions: in vivo, read-out: Css
[26] = Ratio of drug concentration at steady state in human at 15 to 60 mg, po QD after 24 hrs to IC50 for human MRP4 overexpressed in Sf9 insect cells; type: ADME, organism-based; conditions: in vivo

Sequence of Bile salt export pump (O95342 whole entry): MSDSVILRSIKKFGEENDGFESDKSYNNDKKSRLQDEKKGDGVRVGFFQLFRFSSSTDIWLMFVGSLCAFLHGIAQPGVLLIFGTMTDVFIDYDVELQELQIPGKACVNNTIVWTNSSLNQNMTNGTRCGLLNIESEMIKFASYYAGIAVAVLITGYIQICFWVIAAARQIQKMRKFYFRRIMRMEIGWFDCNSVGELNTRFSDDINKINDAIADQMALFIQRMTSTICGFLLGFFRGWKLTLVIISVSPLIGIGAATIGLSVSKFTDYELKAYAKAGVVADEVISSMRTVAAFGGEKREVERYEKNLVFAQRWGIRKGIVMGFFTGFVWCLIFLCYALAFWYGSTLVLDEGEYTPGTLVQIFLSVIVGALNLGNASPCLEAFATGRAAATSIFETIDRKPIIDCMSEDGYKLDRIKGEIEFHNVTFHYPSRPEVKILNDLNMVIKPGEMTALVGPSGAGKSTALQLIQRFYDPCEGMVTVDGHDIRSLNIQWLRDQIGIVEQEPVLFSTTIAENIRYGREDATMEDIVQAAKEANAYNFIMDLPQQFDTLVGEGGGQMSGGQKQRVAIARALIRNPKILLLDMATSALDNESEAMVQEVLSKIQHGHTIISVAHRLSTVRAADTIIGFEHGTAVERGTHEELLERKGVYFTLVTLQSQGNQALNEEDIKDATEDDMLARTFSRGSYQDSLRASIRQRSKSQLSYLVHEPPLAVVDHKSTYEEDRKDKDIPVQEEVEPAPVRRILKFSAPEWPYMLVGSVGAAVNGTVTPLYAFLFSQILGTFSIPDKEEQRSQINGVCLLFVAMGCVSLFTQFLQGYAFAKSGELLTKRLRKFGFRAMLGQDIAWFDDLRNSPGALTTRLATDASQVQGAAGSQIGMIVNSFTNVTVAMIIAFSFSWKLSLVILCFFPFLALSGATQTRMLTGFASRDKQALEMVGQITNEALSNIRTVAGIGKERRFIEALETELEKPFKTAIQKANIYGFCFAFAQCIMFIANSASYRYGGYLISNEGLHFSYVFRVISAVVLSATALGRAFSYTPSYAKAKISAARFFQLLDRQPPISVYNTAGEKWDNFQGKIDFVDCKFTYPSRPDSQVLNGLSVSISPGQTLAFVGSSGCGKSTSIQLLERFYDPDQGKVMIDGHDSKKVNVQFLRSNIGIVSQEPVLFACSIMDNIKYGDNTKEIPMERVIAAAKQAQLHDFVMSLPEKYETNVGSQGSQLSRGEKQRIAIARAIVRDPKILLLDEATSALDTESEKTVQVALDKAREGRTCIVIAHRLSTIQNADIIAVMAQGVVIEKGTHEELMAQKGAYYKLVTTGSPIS
Sequence of ATP-binding cassette sub-family C member 3 (O15438 whole entry): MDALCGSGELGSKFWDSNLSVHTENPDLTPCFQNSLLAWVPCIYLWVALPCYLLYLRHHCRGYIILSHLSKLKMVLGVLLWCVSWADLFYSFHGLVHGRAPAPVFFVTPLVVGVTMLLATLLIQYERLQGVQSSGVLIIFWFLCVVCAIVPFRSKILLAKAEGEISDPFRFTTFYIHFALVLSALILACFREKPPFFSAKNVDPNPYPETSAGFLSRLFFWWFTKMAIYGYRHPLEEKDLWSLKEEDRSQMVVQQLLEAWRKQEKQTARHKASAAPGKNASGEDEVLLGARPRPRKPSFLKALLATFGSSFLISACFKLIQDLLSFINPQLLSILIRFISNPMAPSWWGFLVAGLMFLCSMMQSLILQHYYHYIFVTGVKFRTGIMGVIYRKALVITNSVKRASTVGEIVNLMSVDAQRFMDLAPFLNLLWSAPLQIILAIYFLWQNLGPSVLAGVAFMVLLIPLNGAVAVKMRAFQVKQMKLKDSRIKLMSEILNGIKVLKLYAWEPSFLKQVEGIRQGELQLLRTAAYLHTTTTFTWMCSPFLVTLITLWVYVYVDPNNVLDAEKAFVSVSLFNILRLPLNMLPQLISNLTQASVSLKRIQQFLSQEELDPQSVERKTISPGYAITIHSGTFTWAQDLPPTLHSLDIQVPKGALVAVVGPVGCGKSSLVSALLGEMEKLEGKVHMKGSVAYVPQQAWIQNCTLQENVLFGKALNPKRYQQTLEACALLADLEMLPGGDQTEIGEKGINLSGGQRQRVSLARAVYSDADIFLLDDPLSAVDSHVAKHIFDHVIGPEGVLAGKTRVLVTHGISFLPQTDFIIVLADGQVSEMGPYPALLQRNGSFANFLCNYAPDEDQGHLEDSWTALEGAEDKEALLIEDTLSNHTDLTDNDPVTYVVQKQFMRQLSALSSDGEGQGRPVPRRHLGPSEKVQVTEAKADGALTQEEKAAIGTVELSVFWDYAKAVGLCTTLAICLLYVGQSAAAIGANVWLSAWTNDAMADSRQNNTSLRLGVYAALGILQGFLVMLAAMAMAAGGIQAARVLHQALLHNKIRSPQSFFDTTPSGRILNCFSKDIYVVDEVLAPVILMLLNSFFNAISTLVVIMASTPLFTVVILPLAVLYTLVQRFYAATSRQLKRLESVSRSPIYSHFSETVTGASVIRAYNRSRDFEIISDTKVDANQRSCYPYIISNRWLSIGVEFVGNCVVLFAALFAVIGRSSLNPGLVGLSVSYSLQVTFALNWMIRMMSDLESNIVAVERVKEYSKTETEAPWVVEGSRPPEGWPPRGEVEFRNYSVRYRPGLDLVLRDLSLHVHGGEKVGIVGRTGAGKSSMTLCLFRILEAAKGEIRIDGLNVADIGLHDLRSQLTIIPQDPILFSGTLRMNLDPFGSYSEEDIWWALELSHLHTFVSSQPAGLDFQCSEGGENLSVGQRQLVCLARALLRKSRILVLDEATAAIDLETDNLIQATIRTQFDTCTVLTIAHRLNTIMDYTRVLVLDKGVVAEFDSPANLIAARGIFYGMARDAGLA
Sequence of ATP-binding cassette sub-family C member 2 (Q92887 whole entry): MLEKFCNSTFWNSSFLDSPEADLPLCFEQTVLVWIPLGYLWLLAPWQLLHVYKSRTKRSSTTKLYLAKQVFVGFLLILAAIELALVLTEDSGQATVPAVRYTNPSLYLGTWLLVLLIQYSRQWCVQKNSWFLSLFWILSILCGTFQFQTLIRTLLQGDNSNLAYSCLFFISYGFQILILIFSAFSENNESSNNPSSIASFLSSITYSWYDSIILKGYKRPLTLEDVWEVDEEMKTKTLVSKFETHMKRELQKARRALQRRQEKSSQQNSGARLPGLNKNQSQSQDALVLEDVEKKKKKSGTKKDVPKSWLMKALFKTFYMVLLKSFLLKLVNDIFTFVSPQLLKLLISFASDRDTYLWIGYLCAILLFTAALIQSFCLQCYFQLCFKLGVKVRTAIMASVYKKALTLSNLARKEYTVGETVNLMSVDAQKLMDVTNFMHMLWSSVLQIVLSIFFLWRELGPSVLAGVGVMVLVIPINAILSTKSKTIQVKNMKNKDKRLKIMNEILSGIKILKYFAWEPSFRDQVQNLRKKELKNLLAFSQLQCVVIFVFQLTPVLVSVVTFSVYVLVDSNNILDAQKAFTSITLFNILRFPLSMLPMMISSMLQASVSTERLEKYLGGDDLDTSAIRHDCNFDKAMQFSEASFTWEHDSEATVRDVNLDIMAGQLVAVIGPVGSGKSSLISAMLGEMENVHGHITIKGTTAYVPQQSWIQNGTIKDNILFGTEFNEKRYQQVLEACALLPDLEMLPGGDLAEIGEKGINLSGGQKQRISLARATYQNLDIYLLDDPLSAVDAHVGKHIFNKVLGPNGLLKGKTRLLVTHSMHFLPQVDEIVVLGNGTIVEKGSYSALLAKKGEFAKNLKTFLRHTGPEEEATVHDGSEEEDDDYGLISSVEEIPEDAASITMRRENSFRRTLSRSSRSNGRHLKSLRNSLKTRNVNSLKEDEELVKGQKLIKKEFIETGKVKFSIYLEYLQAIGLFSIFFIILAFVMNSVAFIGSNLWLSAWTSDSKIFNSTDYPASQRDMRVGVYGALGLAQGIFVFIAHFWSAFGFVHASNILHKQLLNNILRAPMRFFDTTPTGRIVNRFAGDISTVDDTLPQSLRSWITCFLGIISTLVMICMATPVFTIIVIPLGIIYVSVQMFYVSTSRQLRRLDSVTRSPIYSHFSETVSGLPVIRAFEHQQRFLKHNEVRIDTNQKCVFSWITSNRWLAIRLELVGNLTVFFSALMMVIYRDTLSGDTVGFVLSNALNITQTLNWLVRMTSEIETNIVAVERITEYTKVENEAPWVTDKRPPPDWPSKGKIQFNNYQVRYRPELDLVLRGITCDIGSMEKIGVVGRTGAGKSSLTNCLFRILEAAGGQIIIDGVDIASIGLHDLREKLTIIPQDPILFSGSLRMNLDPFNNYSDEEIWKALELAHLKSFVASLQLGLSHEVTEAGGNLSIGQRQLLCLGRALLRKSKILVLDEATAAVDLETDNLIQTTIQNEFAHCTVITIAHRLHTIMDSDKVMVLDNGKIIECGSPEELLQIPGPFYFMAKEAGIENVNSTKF

| Compound | pIC50 (Bile salt export pump) | pIC50 [4] | pIC50 [6] | pIC50 [7] | also measured |
| --- | --- | --- | --- | --- | --- |
| Cc1ccc(Nc2nccc(N(C)c3ccc4c(C)n(C)nc4c3)n2)cc1S(N)(=O)=O [PAZOPANIB] | 4.99 | 5.09 | < 3.88 | < 3.88 | concentration at 24 h [1]: 98.8 µM; AUC at 24 h [2]: 2370 µM·h; Ratio [3]: 12.192; Ratio [5]: 9.588 |
| CC(=O)O.C[C@@H](O)[C@@H]1NC(=O)[C@H](CCCCN)NC(=O)[C@@H](Cc2c[nH]c3ccccc23)NC(=O)[C@H](Cc2ccccc2)NC(=O)[C@@H](NC(=O)[C@H](N)Cc2ccccc2)CSSC[C@@H](C(=O)N[C@H](CO)[C@@H](C)O)NC1=O [OCTREOTIDE ACETATE] | 5.03 | < 3.88 | < 3.88 | < 3.88 | AUC at 8 h [8]: 42.2 µM·h; Ratio [9]: 0.565; concentration at 8 h [10]: 5.28 µM |
| CC#C[C@]1(O)CC[C@H]2[C@@H]3CCC4=CC(=O)CCC4=C3[C@@H](c3ccc(N(C)C)cc3)C[C@@]21C [MIFEPRISTONE] | 5.69 | < 3.88 | < 3.88 | < 3.88 | AUC at 24 h [11]: 181 µM·h; Ratio [12]: 3.743; concentration at 24 h [13]: 7.56 µM |
| O=C(O)c1ccc(-n2nc(-c3ccccc3O)nc2-c2ccccc2O)cc1 [DEFERASIROX] | 4.23 | 4.44 | < 3.88 | < 3.88 | AUC at 24 h [14]: 3310 µM·h; Ratio [15]: 3.781; concentration at 24 h [16]: 138 µM; Ratio [17]: 2.363 |
| CC[C@@H]([C@H](C)O)n1ncn(-c2ccc(N3CCN(c4ccc(OC[C@@H]5CO[C@@](Cn6cncn6)(c6ccc(F)cc6F)C5)cc4)CC3)cc2)c1=O [POSACONAZOLE] | 5.09 | < 3.88 | < 3.88 | < 3.88 | concentration at 8 h [18]: 4.41 µM; AUC at 8 h [19]: 35.2 µM·h; Ratio [20]: 0.544 |
| CN(C)C(=O)CCSC(SCCC(=O)O)c1cccc(/C=C/c2ccc3ccc(Cl)cc3n2)c1 (configuration not stated) [MK-571] |  |  | < 3.88 | 5.03 | concentration at 24 h [21]: 18.6 µM; AUC at 24 h [22]: 447 µM·h |
| CCc1ccc(CCOc2ccc(CC3SC(=O)NC3=O)cc2)nc1 (configuration not stated) [PIOGLITAZONE] |  | 4.31 |  | < 3.88 | AUC at 24 h [23]: 22.4 µM·h; Ratio [24]: 2.338; concentration at 24 h [25]: 0.935 µM; Ratio [26]: 0.019 |
